Reference: ChEMBL document CHEMBL4364355, “New Negamycin-Based Potent Readthrough Derivative Effective against TGA-Type Nonsense Mutations” (ACS Med Chem Lett, 2019)
pIC50: −log10 of the molar value. Calls of active or inactive are those of the source. No cut-off for these calls is given here.

Experiments:
Assay type in all cases: cell-based
Mus musculus [1] = species: Mus musculus; experiment: (§1) Induction of read through activity at premature termination codon TGA (non-sense mutation associated with DMD disease) in 27-mer DNA stretch sequence of mouse dystrophin mdx gene transfected as a plasmid by connecting with beta-galactosidase and luciferase genes in COS7 cells assessed as ratio of luciferase activity to beta-galactosidase activity at 200 uM incubated for 48 hrs by dual luciferase reporter gene assay relative to control
Mus musculus [2] = species: Mus musculus; experiment: as §1, with “TAA” for “TGA”
Homo sapiens [3] = species: Homo sapiens; experiment: Induction of read through activity at premature termination codon TGA in human RLuc-TP53 R213X non-sense mutation sequence transfected in COS7 cells at 200 uM incubated for 48 hrs by dual luciferase reporter gene assay relative to control
Mus musculus [4] = species: Mus musculus; experiment: as §1, with “TAG” for “TGA”
Homo sapiens [5] = species: Homo sapiens; experiment: Induction of read through activity at premature termination codon TGA in human RLuc-LAMA2 C1546X non-sense mutation sequence transfected in COS7 cells at 200 uM incubated for 48 hrs by dual luciferase reporter gene assay relative to control
HDQ-P1 [6] = experiment: (§2) Induction of read through activity at premature termination codon TGA in human HDQ-P1 cells harboring TP53 R213X homozygous non-sense mutation sequence assessed as expression of full length p53 protein at 200 uM incubated for 72 hrs by automated capillary electrophoresis western analysis relative to vinculin expression
COS-7 = experiment: Cytotoxicity against African green monkey COS7 cells assessed as decrease in cell viability by WST1 assay; details: Chlorocebus aethiops
Homo sapiens [7] = species: Homo sapiens; experiment: Induction of read through activity at premature termination codon TGA in human RLuc-DMD R3381X non-sense mutation sequence transfected in COS7 cells at 200 uM incubated for 48 hrs by dual luciferase reporter gene assay relative to control
HDQ-P1 [8] = experiment: Cytotoxicity against human HDQ-P1 cells at 200 uM; details: hdq-p1, 200 µM
Homo sapiens [9] = species: Homo sapiens; experiment: Induction of read through activity at premature termination codon TAG in human RLuc-TP53 Q192X non-sense mutation sequence transfected in COS7 cells at 200 uM incubated for 48 hrs by dual luciferase reporter gene assay relative to control
Homo sapiens [10] = species: Homo sapiens; experiment: Induction of read through activity at premature termination codon TGA in human RLuc-CF W1282X non-sense mutation sequence transfected in COS7 cells at 200 uM incubated for 48 hrs by dual luciferase reporter gene assay relative to control
Homo sapiens [11] = species: Homo sapiens; experiment: Induction of read through activity at premature termination codon TGA in human RLuc-CF G542X non-sense mutation sequence transfected in COS7 cells at 200 uM incubated for 48 hrs by dual luciferase reporter gene assay relative to control
HDQ-P1 [12] = experiment: as §2, with “100” for “200”
HDQ-P1 [13] = experiment: as §2, with “25” for “200”
Mus musculus [14] = species: Mus musculus; experiment: as §1, with “cells” for “cells assessed as ratio of luciferase activity to beta-galactosidase activity at 200 uM”, “(+)-negamycin” for “control”
Mus musculus [15] = species: Mus musculus; experiment: as §1, with “cells” for “cells assessed as ratio of luciferase activity to beta-galactosidase activity at 200 uM”, “TGP112” for “control”
Mus musculus [16] = species: Mus musculus; experiment: as §1, with “cells” for “cells assessed as ratio of luciferase activity to beta-galactosidase activity at 200 uM”, “(+)-G418” for “control”
HDQ-P1 [17] = experiment: as §2, with “50” for “200”
Mus musculus [18] = species: Mus musculus; experiment: as §1, with “cells” for “cells assessed as ratio of luciferase activity to beta-galactosidase activity at 200 uM”, “assay” for “assay relative to control”
HDQ-P1 [19] = experiment: Induction of read through activity at premature termination codon TGA in human HDQ-P1 cells harboring TP53 R213X homozygous non-sense mutation sequence at 200 uM incubated for 72 hrs by automated capillary electrophoresis western analysis relative to G418
HDQ-P1 [20] = experiment: as §2, with “12.5” for “200”

CN(CC(=O)O)NC(=O)C[C@H](CCN)NC(=O)[C@@H](N)CN
Ratio (Mus musculus [1]): 3.02

CN(CC(=O)O)NC(=O)C[C@H](CCN)NC(=O)[C@@H](N)Cc1ccc(O)cc1
Ratio (Mus musculus [1]): 2.59

CN(CC(=O)O)NC(=O)C[C@@H](N)CCN
Ratio (Mus musculus [1]): 3.8 to 4.26
Ratio (Mus musculus [2]): 1.2
Activity (Homo sapiens [3]): 1.95%
Ratio (Mus musculus [4]): 1.48
Activity (Homo sapiens [5]): 1.85%
Ratio (HDQ-P1 [6]): 7.9

CN(CC(=O)O)NC(=O)C[C@H](CCN)NC(=O)CN
Ratio (Mus musculus [1]): 2.74

CN(CC(=O)O)NC(=O)C[C@H](CCN)NC(=O)[C@@H](N)CCC(=O)O
Ratio (Mus musculus [1]): 1.8

CN(CC(=O)O)NC(=O)C[C@H](CCN)NC(=O)[C@@H](N)CC1CCCCC1
Ratio (Mus musculus [1]): 5.87

CC(C)C[C@H](N)C(=O)N[C@@H](CCN)CC(=O)NN(C)CC(=O)O
Ratio (Mus musculus [1]): 4.94

CCCCCCCCCCC[C@H](N)C(=O)N[C@@H](CCN)CC(=O)NN(C)CC(=O)O
pIC50 (COS-7): 4.17

CN(CC(=O)O)NC(=O)C[C@H](N)C[C@@H](O)CN
Ratio (Mus musculus [1]): 1.47 to 2.25
Ratio (Mus musculus [2]): 1.13
Ratio (Mus musculus [4]): 1.17

CN(CC(=O)O)NC(=O)C[C@H](CCN)NC(=O)[C@@H](N)CC(N)=O
Ratio (Mus musculus [1]): 2.21

CC(C)[C@H](N)C(=O)N[C@@H](CCN)CC(=O)NN(C)CC(=O)O
Ratio (Mus musculus [1]): 2

CC[C@H](C)[C@H](N)C(=O)N[C@@H](CCN)CC(=O)NN(C)CC(=O)O
Ratio (Mus musculus [1]): 1.83

CN[C@@H](CC(C)C)C(=O)N[C@@H](CCN)CC(=O)NN(C)CC(=O)O
Ratio (Mus musculus [1]): 2.45

CC(C)C[C@@H](N)C(=O)N[C@@H](CCN)CC(=O)NN(C)CC(=O)O
Ratio (Mus musculus [1]): 1.46

CN(CC(=O)O)NC(=O)C[C@H](CCN)NC(=O)[C@@H](N)CC(=O)O
Ratio (Mus musculus [1]): 1.96

CN(CC(=O)O)NC(=O)C[C@H](CCN)NC(=O)[C@@H](N)CCCCN
Ratio (Mus musculus [1]): 2.49

CCCC[C@H](N)C(=O)N[C@@H](CCN)CC(=O)NN(C)CC(=O)O
Ratio (Mus musculus [1]): 4.21

CN(CC(=O)O)NC(=O)C[C@H](CCN)NC(=O)[C@@H](N)CCC(N)=O
Ratio (Mus musculus [1]): 1.62

CCCCC[C@H](N)C(=O)N[C@@H](CCN)CC(=O)NN(C)CC(=O)O
Ratio (Mus musculus [1]): 3.4

CN(CC(=O)O)NC(=O)C[C@H](CCN)NC(=O)[C@@H](N)CCCN
Ratio (Mus musculus [1]): 2.96

CN[C@H]1[C@H](O)[C@H](O[C@@H]2[C@@H](O)[C@H](O[C@H]3O[C@H]([C@@H](C)O)[C@@H](O)[C@H](O)[C@H]3N)[C@@H](N)C[C@H]2N)OC[C@@]1(C)O
Activity (Homo sapiens [7]): 1.62 to 7.25%
Ratio (Mus musculus [1]): 7.43 to 7.99
Ratio (Mus musculus [2]): 4.78
Activity (Homo sapiens [3]): 1.62 to 7.25%
Activity (HDQ-P1 [8]): Non-Toxic
Ratio (Mus musculus [4]): 7.86
Activity (Homo sapiens [5]): 1.62 to 7.25%
Activity (Homo sapiens [9]): 1.62 to 7.25%
Activity (Homo sapiens [10]): 1.62 to 7.25%
Activity (Homo sapiens [11]): 1.62 to 7.25%
Ratio (HDQ-P1 [6]): 72

CN(CC(=O)O)NC(=O)C[C@H](CCN)NC(=O)[C@@H](N)CO
Ratio (Mus musculus [1]): 1.48

CC(C)CCC(=O)N[C@@H](CCN)CC(=O)NN(C)CC(=O)O
Ratio (Mus musculus [1]): 2.82

CN(CC(=O)O)NC(=O)C[C@H](CCN)NC(=O)[C@@H](N)CCN
Ratio (Mus musculus [1]): 3.25

CCCCCCCCC[C@H](N)C(=O)N[C@@H](CCN)CC(=O)NN(C)CC(=O)O
Ratio (HDQ-P1 [12]): 48
Activity (Homo sapiens [7]): 2.25 to 7.3%
Ratio (Mus musculus [1]): 16 to 18.3
Ratio (HDQ-P1 [13]): 2.4
Ratio (Mus musculus [2]): 2.24
Activity (Homo sapiens [3]): 2.25 to 7.3%
Ratio (Mus musculus [4]): 4.39
Ratio (Mus musculus [14]): 10
Ratio (Mus musculus [15]): 4
Activity (Homo sapiens [5]): 6.34%
Activity (Homo sapiens [9]): inactive
Activity (Homo sapiens [10]): inactive
Ratio (Mus musculus [16]): 2
Activity (Homo sapiens [11]): 2.25 to 7.3%
Ratio (HDQ-P1 [17]): 6.7
Activity (Mus musculus [18]): Dose-dependent effect
Ratio (HDQ-P1 [6]): 215
Ratio (HDQ-P1 [19]): 3
Ratio (HDQ-P1 [20]): 2.3

CC(C)C[C@H](N)C(=O)N[C@@H](CCCN)CC(=O)NN(C)CC(=O)O
Ratio (Mus musculus [1]): 2.3
Ratio (Mus musculus [2]): 1.11
Ratio (Mus musculus [4]): 1.3

CN(CC(=O)O)NC(=O)C[C@H](CCN)NC(=O)[C@@H](N)Cc1ccccc1
Ratio (Mus musculus [1]): 2.99

CCCCCCC[C@H](N)C(=O)N[C@@H](CCN)CC(=O)NN(C)CC(=O)O
Ratio (Mus musculus [1]): 7.97
Ratio (Mus musculus [15]): 2

C[C@H](N)C(=O)N[C@@H](CCN)CC(=O)NN(C)CC(=O)O
Ratio (Mus musculus [1]): 2.4
